Data from EP3549947B1, “POLYRGD PEPTIDES OBTAINED BY CHEMICAL AND BIOTECHNOLOGY METHODS WITH INJURY REDUCING AND/OR NEUROPROTECTIVE EFFECTS AND A KIT FOR THEIR ACTIVITY EVALUATION” (Uniwersytet Gdanski, priority 2018, dated 2019).
Entries after “also recorded” stand apart in the source; their conditions may differ.

Key:
primary neural cells = assay: Multifactorial in vitro model of neurological injury (six injury factors), CellTiterBlue viability; assay type: cell-based, Wistar rat; details: 1-hour injury factor (glucose deprivation, acidosis pH 6.35 + 200 mM sodium lactate, 10 mM sodium azide, 400 µM glutamic acid, 800 µM NMDA or 800 µM kainic acid), then 20 hour incubation with 100 µM peptide (RGD10: 1 µg/ml)
Protocol: (§1) Primary neural cortical cultures were obtained from Wistar rat E18.5 embryos. To this end, pregnant rat females were anesthetized and euthanized in a CO2 chamber. In some cases, euthanasia was performed by isoflurane. The cortex tissue was excised from the isolated embryos and washed with HBSS buffer, supplemented with a mixture of penicillin and streptomycin, and HEPES. Afterwards, the cortex tissue was trypsinized for 10 minutes at 37 °C and homogenized mechanically in order to disintegrate the tissue to the form of a cell suspension. The cells were the centrifuged at 300 rcf for 4 minutes, resuspended once more in HBSS and quantified in a Bürker chamber in order to obtain a cell suspension of proper density. […]
(§2) A subject of the invention constitutes a diagnostic methodology for measuring the neuroprotective activity of peptides in a model of several factors co-occurring during any neurological injury. […] These injury conditions were optimized so that the strength of each injury factor causes a 30-40% decrease in response in a CellTiterBlue-based evaluation (a CTB fluorophore in a modified biochemical assay of the MTT type) of cellular viability, relying on quantitative analysis of mitochondrial metabolic functions. […] The fluorescence intensity of the CTB agent is measured spectrofluorimetically (560ex/590em) and is proportional to the number of living cells. […]

[1] = tested on: primary neural cortical cultures; assay: Viability assay (CellTiterBlue) of primary neural cultures exposed to polyRGD peptides; assay type: cell-based, Wistar rat; details: reference peptide at 50 µM, 20 hour exposure
Protocol: as §1, §2

| Molecule | injury-reducing and/or neuroprotective activity (neural cell viability) (primary neural cells) | injury-reducing and/or neuroprotective activity (neural cell viability) (primary neural cells; listed as RGD 1) | cytotoxic effects (viability of neural culture) [1] |
| --- | --- | --- | --- |
| N=C(N)NCCC[C@H](N)C(=O)NCC(=O)N[C@@H](CC(=O)O)C(N)=O [RGD1, H2N-RGD-amide] | significant increase in neural cell viability with regard to all injury factors; also recorded: significant injury-reducing and/or neuroprotective efficacy with respect to all six injury factors | broadest spectrum of activity | – |
| Tat(49-57)NH2 [TAT peptide] | – | – | None of the analyzed peptides displayed significant cytotoxic effects in the assessed concentration ranges, as well as a reference factor |
